Measurements from US8426447B2, “Spiro-tricyclic ring compounds as beta-secretase modulators and methods of use” (Amgen Inc., priority 2008, dated 2013).

What was measured:
BACE1 [1] = target: T1, BACE1 (Homo sapiens, UniProt P56817); test: In Vitro Enzymatic BACE FRET (Fluorescence Resonance Energy Transfer) Assay; assay type: biochemical
Method in brief: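 One-hour incubation initiated by 50 nM quenched FRET peptide spanning the BACE cleavage site, in 0.05 M acetate (pH 4.2), 100 uM genapol, 10% DMSO final. Tris addition neutralizes pH to end the reaction before fluorescence measurement.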

BACE1 [2] = target: T1, BACE1; test: In Vitro BACE Cell-based Assay (HEK cell assay): Aβ40 in conditioned medium of cells stably expressing Amyloid Precursor Protein, sandwich ELISA
Method in brief: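 HEK cells stably expressing APP were treated 24 h with compound in 10-point dose response starting at 100 or 10 μM (0.1% DMSO). Secreted Aβ40 quantified by sandwich ELISA (pAb40 capture, biotinylated 6E10 detection, europium time-resolved fluorescence), with IC50 derived from percent inhibition versus concentration.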

[3] = system: amyloid beta peptide (A-beta) in cerebrospinal fluid and brain; test: In Vivo Inhibition of Beta-Secretase: reduction of A-beta levels in CSF and brain; details: after 4 hrs, mouse or rat
Description: Several animal models, including mouse, rat, dog, and monkey, may be used to screen for inhibition of beta-secretase activity in vivo following administration of a test compound sample. Animals used in this invention can be wild type, transgenic, or gene knockout animals. […] A separate group of animals receive 2% hydroxypropyl methylcellulose, 1% Tween80 alone, containing no test compound, and serve as a vehicle-control group. At the end of the test period, animals are sacrificed and brain tissues, plasma or cerebrospinal fluid are collected. […] Homogenates are centrifuged at 355,000 g, 4° C. for 30 minutes. CSF or brain supernatants are then analyzed for the presence of A-beta peptide by specific sandwich ELISA assays based on ECL (Electrochemiluminescence) technology. For example, rat Abeta40 is measured using biotinylated-4G8 (Signet) as a capture antibody and Fab40 (an in-house antibody specific to the C-terminal of Abeta40) as a detection antibody.

[4] = Table IV, class symbols, read-out: BACE1 FRET assay
[5] = Table IV, class symbols, read-out: HEK cell assay
[6] = HEK cells, read-out: HEK cell assay
[7] = Table II, read-out: BACE1 FRET assay
[8] = Table II, Aβ40, 24 h incubation, read-out: HEK cell assay

T1 sequence (P56817 46-501, species assumed): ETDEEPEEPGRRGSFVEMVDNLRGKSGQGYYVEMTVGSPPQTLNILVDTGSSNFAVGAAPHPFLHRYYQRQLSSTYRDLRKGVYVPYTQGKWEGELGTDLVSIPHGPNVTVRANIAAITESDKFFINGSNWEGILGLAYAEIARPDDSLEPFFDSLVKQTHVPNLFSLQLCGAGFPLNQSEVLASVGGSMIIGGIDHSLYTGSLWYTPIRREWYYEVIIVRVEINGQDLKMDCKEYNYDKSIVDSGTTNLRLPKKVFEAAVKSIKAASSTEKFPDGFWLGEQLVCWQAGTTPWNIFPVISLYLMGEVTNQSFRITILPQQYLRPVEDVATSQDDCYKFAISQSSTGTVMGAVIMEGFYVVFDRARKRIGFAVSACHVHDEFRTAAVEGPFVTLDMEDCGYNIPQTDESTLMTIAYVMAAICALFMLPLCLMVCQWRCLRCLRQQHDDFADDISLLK

Compound	IC50 (BACE1 [1]; [4])	IC50 (BACE1 [2]; [5])	IC50 (BACE1 [1]; read-out: BACE1 FRET assay)	percent reduction in CSF A-beta levels ([3]; 10 mpk)	percent reduction in brain A-beta levels ([3]; 10 mpk)	percent reduction in CSF A-beta levels ([3]; 30 mpk)	percent reduction in brain A-beta levels ([3]; 30 mpk)	other results
NC1=N[C@@]2(CO1)c1cc(-c3cccnc3F)ccc1Oc1cnc(-c3cccnc3)cc12 [Example 517, (5S)-7-(2-fluoro-3-pyridinyl)-3-(3-pyridinyl)spiro[chromeno[2,3-c]pyridine-5,4′-[1,3]oxazol]-2′-amine]				56%	36%			IC50 (BACE1 [1]; BACE1 FRET assay (uM)): < 0.1 µM; IC50 (BACE1 [2]; HEK cell assay (uM), HEK cells): < 0.1 µM
CC(C)(C)C#Cc1cnc2c(c1)[C@]1(COC(N)=N1)c1cc(-c3cncnc3)ccc1O2 [Example 299, (S)-3-(3,3-dimethylbut-1-ynyl)-7-(pyrimidin-5-yl)-5′H-spiro[chromeno[2,3-b]pyridine-5,4′-oxazol]-2′-amine]			< 0.1 µM			84%	81%	IC50 (BACE1 [2]; read-out: HEK cell assay): < 0.1 µM
CC(C)(F)COc1cc(F)c2c(c1)[C@]1(COC(N)=N1)c1cc(-c3cncnc3)ccc1O2 [Example 293, (S)-4′-fluoro-2′-(2-fluoro-2-methylpropoxy)-7′-(pyrimidin-5-yl)-5H-spiro[oxazole-4,9′-xanthen]-2-amine]			< 0.1 µM	73%	63%			IC50 (BACE1 [2]; [6]): < 0.1 µM
Cc1cnc(F)c(-c2ccc3c(c2)[C@@]2(COC(N)=N2)c2cc(C4=CCOCC4)ncc2O3)c1 [Example 286, (S)-3-(3,6-dihydro-2H-pyran-4-yl)-7-(2-fluoro-5-methylpyridin-3-yl)-5′H-spiro[chromeno[2,3-c]pyridine-5,4′-oxazol]-2′-amine]			< 0.1 µM	73%	57%			IC50 (BACE1 [2]; [6]): < 0.1 µM
NC1=N[C@]2(CO1)c1cc(OCC(F)(F)F)ccc1Oc1ccc(-c3cncnc3)cc12 [Example 58, (4S)-2′-(5-pyrimidinyl)-7′-(2,2,2-trifluoroethoxy)spiro[1,3-oxazole-4,9′-xanthen]-2-amine]				45%	29%			IC50 (BACE1 [1]; [7]): < 0.1 µM; IC50 (BACE1 [2]; [8]): 0.1 to 1 µM
NC1=N[C@]2(CO1)c1cc(OCC3CC3)ccc1Oc1ccc(-c3cncnc3)cc12 [Example 61, (4S)-2′-(cyclopropylmethoxy)-7′-(5-pyrimidinyl)spiro[1,3-oxazole-4,9′-xanthen]-2-amine]				50%	18%			IC50 (BACE1 [1]; [7]): < 0.1 µM; IC50 (BACE1 [2]; [8]): < 0.1 µM
CC(C)(C)COc1ccc2c(c1)[C@]1(COC(N)=N1)c1cc(-c3cccnc3)cnc1O2 [Example 92, (5R)-7-(2,2-dimethylpropoxy)-3-(3-pyridinyl)spiro[chromeno[2,3-b]pyridine-5,4′-[1,3]oxazol]-2′-amine]						62%	49%	IC50 (BACE1 [1]; [7]): < 0.1 µM; IC50 (BACE1 [2]; [8]): < 0.1 µM
CC1(C)CN(c2ccc3c(c2)[C@]2(COC(N)=N2)c2cc(-c4cccnc4F)ccc2O3)CCO1 [Example 290, (S)-2′-(2,2-dimethylmorpholino)-7′-(2-fluoropyridin-3-yl)-5H-spiro[oxazole-4,9′-xanthen]-2-amine]			< 0.1 µM	63%	33%			IC50 (BACE1 [2]; [6]): < 0.1 µM
NC1=NC2(CO1)c1cc(-c3cncnc3)ccc1Oc1c(F)cc(C3=CCOCC3)cc12 (stereo in doubt) [Example 295, (R)-2′-(3,6-dihydro-2H-pyran-4-yl)-4′-fluoro-7′-(pyrimidin-5-yl)-5H-spiro[oxazole-4,9′-xanthen]-2-amine]	< 0.1 µM	< 0.1 µM				78%	66%	
NC1=N[C@@]2(CO1)c1cc(-c3cncnc3)ccc1Oc1cc(F)c(C3=CCOCC3)cc12 [Example 292, (S)-2′-(3,6-dihydro-2H-pyran-4-yl)-3′-fluoro-7′-(pyrimidin-5-yl)-5H-spiro[oxazole-4,9′-xanthen]-2-amine]	< 0.1 µM	< 0.1 µM		57%	29%			

Continued, in another order:

IC50 (BACE1 [1]; [4])	IC50 (BACE1 [2]; [5])	IC50 (BACE1 [1]; read-out: BACE1 FRET assay)	Compound	percent reduction in CSF A-beta levels ([3]; 10 mpk)	percent reduction in brain A-beta levels ([3]; 10 mpk)	percent reduction in CSF A-beta levels ([3]; 30 mpk)	percent reduction in brain A-beta levels ([3]; 30 mpk)	other results
< 0.1 µM	< 0.1 µM		NC1=N[C@@]2(CO1)c1cc(-c3cccnc3)ccc1Oc1ccc(N3CC(F)(F)C3)cc12 [Example 540, (4S)-2′-(3,3-difluoro-1-azetidinyl)-7′-(3-pyridinyl)spiro[1,3-oxazole-4,9′-xanthen]-2-amine]	40%	7%			
< 0.1 µM	< 0.1 µM		Cc1cc(-c2ccc3c(c2)[C@]2(COC(N)=N2)c2cc(-c4cccnc4F)ccc2O3)on1 [Example 563, (4S)-2′-(2-fluoro-3-pyridinyl)-7′-(3-methyl-5-isoxazolyl)spiro[1,3-oxazole-4,9′-xanthen]-2-amine]	54%	41%			
< 0.1 µM	< 0.1 µM		NC1=N[C@@]2(CO1)c1cc(-c3ccccc3)ccc1Oc1cnc(C3=CCOCC3)cc12 [Example 545, (5S)-3-(3,6-dihydro-2H-pyran-4-yl)-7-phenylspiro[chromeno[2,3-c]pyridine-5,4′-[1,3]oxazol]-2′-amine]			73%	58%	
< 0.1 µM	< 0.1 µM		COC(C)(C)C#Cc1cnc2c(c1)[C@]1(COC(N)=N1)c1cc(-c3cnccn3)ccc1O2 [Example 586, (5S)-3-(3-methoxy-3-methyl-1-butyn-1-yl)-7-(2-pyrazinyl)spiro[chromeno[2,3-b]pyridine-5,4′-[1,3]oxazol]-2′-amine]	32%	11%			
< 0.1 µM	< 0.1 µM		C[C@@H]1CN(c2ccc3c(c2)[C@]2(COC(N)=N2)c2cc(-c4cccnc4)ccc2O3)C[C@H](C)O1 [Example 662, (4S)-2′-((2R,6S)-2,6-dimethyl-4-morpholinyl)-7′-(3-pyridinyl)spiro[1,3-oxazole-4,9′-xanthen]-2-amine]			53%	34%	
		< 0.1 µM	Cn1cc(-c2cc3c(cc2F)Oc2ccc(-c4cccnc4)cc2[C@@]32COC(N)=N2)cn1 [Example 531, (4S)-3′-fluoro-2′-(1-methyl-1H-pyrazol-4-yl)-7′-(3-pyridinyl)spiro[1,3-oxazole-4,9′-xanthen]-2-amine]	45%	25%			IC50 (BACE1 [2]; [6]): < 0.1 µM
		< 0.1 µM	COC(C)(C)C#Cc1cc(F)c2c(c1)[C@]1(COC(N)=N1)c1cc(-c3cncnc3)ccc1O2 [Example 673, (4S)-4′-fluoro-2′-(3-methoxy-3-methyl-1-butyn-1-yl)-7′-(5-pyrimidinyl)spiro[1,3-oxazole-4,9′-xanthen]-2-amine]			81%	63%	IC50 (BACE1 [2]; read-out: HEK cell assay): < 0.1 µM
